Reference: the kinase profiling compilation of Christmann-Franck et al. (2016)

Key:
[1] = biological target: BLK (human) (UniProt P51451); assay: KINOMEscan competition binding; conditions: compound 1.0 µM
[2] = biological target: FLT1 (human) (UniProt P17948); assay: KINOMEscan competition binding; conditions: compound 1.0 µM
[3] = biological target: RPS6KA3 KD1 (human) (UniProt P51812); assay: KINOMEscan competition binding; conditions: compound 1.0 µM
[4] = biological target: MAPKAPK5 (human) (UniProt Q8IW41); assay: KINOMEscan competition binding; conditions: compound 1.0 µM
[5] = biological target: SRPK3 (human) (UniProt Q9UPE1); assay: KINOMEscan competition binding; conditions: compound 1.0 µM
[6] = biological target: PRKG1 (human) (UniProt Q13976); assay: KINOMEscan competition binding; conditions: compound 1.0 µM
[7] = tested on: RET (human), P07949 [V804L]; assay: KINOMEscan competition binding; conditions: compound 1.0 µM
[8] = biological target: MAPK10 (human) (UniProt P53779); assay: KINOMEscan competition binding; conditions: compound 1.0 µM
[9] = biological target: CAMK1G (human) (UniProt Q96NX5); assay: KINOMEscan competition binding; conditions: compound 1.0 µM
[10] = biological target: CAMKK2 (human) (UniProt Q96RR4); assay: KINOMEscan competition binding; conditions: compound 1.0 µM
[11] = biological target: TNK2 (human) (UniProt Q07912); assay: KINOMEscan competition binding; conditions: compound 1.0 µM
[12] = biological target: PRKCQ (human) (UniProt Q04759); assay: KINOMEscan competition binding; conditions: compound 1.0 µM
[13] = biological target: MAP3K4 (human) (UniProt Q9Y6R4); assay: KINOMEscan competition binding; conditions: compound 1.0 µM
[14] = biological target: MAP4K2 (human) (UniProt Q12851); assay: KINOMEscan competition binding; conditions: compound 1.0 µM
[15] = biological target: RPS6KA2 KD1 (human) (UniProt Q15349); assay: KINOMEscan competition binding; conditions: compound 1.0 µM
[16] = biological target: NIM1 (human) (UniProt Q8IY84); assay: KINOMEscan competition binding; conditions: compound 1.0 µM
NIM1 (human), sequence (Q8IY84 whole entry, looked up): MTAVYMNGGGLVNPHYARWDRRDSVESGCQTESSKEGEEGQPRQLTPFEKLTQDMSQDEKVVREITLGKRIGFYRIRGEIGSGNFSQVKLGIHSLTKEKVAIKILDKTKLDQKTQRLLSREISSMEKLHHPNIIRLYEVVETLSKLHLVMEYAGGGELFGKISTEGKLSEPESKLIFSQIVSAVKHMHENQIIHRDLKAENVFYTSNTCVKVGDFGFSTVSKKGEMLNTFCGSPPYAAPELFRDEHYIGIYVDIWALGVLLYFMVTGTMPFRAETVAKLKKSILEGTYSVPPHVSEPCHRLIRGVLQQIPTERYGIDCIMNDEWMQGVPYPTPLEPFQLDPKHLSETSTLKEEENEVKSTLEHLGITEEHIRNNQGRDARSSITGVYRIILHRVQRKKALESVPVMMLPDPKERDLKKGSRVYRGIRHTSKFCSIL

[17] = biological target: STK17A (human) (UniProt Q9UEE5); assay: KINOMEscan competition binding; conditions: compound 1.0 µM
[18] = biological target: PAK3 (human) (UniProt O75914); assay: KINOMEscan competition binding; conditions: compound 1.0 µM
[19] = tested on: RET (human), P07949 [M918T]; assay: KINOMEscan competition binding; conditions: compound 1.0 µM
[20] = biological target: ABL2 (human) (UniProt P42684); assay: KINOMEscan competition binding; conditions: compound 1.0 µM
[21] = biological target: FGFR3 (human) (UniProt P22607); assay: KINOMEscan competition binding; conditions: compound 1.0 µM
[22] = biological target: CDK8 (human) (UniProt P49336); assay: KINOMEscan competition binding; conditions: compound 1.0 µM
CDK8 (human), sequence (P49336 whole entry, looked up): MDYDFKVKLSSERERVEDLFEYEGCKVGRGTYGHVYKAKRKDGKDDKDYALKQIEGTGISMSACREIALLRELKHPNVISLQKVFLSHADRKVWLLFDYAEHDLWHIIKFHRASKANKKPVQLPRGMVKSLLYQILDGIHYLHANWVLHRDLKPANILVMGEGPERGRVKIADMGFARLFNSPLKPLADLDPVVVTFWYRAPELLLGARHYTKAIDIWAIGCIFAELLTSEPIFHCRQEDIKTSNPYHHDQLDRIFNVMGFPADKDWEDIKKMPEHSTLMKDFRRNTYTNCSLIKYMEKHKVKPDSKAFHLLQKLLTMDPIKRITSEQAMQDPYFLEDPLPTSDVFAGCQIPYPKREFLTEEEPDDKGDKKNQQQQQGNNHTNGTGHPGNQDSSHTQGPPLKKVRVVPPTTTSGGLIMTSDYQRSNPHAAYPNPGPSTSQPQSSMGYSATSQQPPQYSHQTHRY

[23] = biological target: MAP3K7 (human) (UniProt O43318); assay: KINOMEscan competition binding; conditions: compound 1.0 µM
MAP3K7 (human), sequence (O43318 whole entry, looked up): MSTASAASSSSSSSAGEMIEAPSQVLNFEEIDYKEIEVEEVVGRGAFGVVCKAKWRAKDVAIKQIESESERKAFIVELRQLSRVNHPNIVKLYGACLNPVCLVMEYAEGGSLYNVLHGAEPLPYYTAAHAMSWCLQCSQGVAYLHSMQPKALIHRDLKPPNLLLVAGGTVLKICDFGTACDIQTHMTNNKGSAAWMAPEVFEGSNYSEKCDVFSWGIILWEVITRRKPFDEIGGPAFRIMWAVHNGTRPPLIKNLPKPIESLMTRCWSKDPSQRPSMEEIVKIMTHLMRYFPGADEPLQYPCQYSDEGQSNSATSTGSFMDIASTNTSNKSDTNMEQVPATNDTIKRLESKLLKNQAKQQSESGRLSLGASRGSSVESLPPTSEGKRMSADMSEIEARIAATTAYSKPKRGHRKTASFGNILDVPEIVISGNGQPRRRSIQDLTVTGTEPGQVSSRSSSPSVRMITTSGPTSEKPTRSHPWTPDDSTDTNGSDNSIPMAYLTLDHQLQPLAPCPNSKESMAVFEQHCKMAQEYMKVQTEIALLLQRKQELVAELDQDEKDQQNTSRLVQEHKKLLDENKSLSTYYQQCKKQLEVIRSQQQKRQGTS

[24] = biological target: DYRK2 (human) (UniProt Q92630); assay: KINOMEscan competition binding; conditions: compound 1.0 µM
[25] = biological target: FLT1 (human) (UniProt P17948); assay: SelectScreen, TR FRET; conditions: compound 5.0 µM
[26] = biological target: FES (human) (UniProt P07332); assay: SelectScreen, TR FRET; conditions: compound 5.0 µM
[27] = biological target: EPHB2 (human) (UniProt P29323); assay: SelectScreen, TR FRET; conditions: compound 5.0 µM
[28] = biological target: PIM2 (human) (UniProt Q9P1W9); assay: SelectScreen, TR FRET; conditions: compound 5.0 µM
[29] = biological target: INSR (human) (UniProt P06213); assay: SelectScreen, TR FRET; conditions: compound 5.0 µM
INSR (human), sequence (P06213 whole entry, looked up): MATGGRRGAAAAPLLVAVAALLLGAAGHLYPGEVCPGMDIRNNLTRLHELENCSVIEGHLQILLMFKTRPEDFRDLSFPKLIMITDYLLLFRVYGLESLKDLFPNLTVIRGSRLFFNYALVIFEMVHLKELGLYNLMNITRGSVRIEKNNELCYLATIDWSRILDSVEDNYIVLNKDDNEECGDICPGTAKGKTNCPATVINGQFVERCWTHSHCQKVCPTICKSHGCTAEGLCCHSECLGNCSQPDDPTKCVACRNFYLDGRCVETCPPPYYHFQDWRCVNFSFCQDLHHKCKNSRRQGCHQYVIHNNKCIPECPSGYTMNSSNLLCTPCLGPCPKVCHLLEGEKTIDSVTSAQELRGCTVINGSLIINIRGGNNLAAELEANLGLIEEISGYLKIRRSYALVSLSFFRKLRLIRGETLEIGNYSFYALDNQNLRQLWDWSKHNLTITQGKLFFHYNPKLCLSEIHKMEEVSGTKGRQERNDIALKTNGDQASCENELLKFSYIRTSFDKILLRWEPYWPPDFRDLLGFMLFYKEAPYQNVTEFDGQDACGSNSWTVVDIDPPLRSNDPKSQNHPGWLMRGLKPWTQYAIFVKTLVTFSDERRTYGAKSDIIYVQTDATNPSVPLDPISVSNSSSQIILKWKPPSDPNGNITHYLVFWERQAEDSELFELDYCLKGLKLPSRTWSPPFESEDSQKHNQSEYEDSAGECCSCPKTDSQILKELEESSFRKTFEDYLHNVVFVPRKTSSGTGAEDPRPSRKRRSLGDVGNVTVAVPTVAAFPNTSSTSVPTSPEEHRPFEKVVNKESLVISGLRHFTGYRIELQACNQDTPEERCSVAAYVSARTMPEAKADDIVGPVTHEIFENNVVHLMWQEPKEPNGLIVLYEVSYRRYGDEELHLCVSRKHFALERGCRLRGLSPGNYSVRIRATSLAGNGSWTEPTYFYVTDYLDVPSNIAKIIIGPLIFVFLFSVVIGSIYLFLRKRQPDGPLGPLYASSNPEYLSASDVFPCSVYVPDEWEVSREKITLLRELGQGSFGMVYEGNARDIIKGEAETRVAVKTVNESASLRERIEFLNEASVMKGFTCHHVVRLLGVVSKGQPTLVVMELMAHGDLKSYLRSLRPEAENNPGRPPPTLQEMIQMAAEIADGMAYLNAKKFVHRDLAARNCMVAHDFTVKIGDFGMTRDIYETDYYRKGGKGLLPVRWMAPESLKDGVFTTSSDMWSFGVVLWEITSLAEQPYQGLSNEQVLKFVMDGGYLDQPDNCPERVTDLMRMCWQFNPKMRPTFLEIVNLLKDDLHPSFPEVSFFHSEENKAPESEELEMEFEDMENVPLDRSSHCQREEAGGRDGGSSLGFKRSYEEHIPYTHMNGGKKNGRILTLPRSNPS

[30] = biological target: PHKG2 (human) (UniProt P15735); assay: SelectScreen, TR FRET; conditions: compound 5.0 µM
PHKG2 (human), sequence (P15735 whole entry, looked up): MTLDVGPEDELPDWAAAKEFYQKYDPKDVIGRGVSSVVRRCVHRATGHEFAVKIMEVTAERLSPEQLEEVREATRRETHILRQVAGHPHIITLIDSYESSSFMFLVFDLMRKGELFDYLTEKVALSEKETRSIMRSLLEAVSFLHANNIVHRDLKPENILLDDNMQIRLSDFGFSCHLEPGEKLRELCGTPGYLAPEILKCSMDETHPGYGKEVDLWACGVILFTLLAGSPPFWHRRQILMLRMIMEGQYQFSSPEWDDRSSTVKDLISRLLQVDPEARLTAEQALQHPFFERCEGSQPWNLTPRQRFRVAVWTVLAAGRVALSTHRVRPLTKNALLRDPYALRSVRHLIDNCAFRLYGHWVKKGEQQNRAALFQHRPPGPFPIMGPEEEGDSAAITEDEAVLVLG

[31] = biological target: CAMK2B (human) (UniProt Q13554); assay: SelectScreen, TR FRET; conditions: compound 5.0 µM
[32] = biological target: PRKCG (human) (UniProt P05129); assay: SelectScreen, TR FRET; conditions: compound 5.0 µM
[33] = biological target: AKT3 (human) (UniProt Q9Y243); assay: SelectScreen, TR FRET; conditions: compound 5.0 µM
[34] = biological target: AKT2 (human) (UniProt P31751); assay: SelectScreen, TR FRET; conditions: compound 5.0 µM
[35] = biological target: PAK6 (human) (UniProt Q9NQU5); assay: SelectScreen, TR FRET; conditions: compound 5.0 µM
[36] = tested on: FLT3 (human), P36888 [D835Y]; assay: SelectScreen, TR FRET; conditions: compound 5.0 µM
[37] = biological target: SRC (human) (UniProt P12931); assay: SelectScreen, TR FRET; conditions: compound 5.0 µM
[38] = biological target: LYN (human) (UniProt P07948); assay: SelectScreen, TR FRET; conditions: compound 5.0 µM
[39] = biological target: CSNK1G1 (human) (UniProt Q9HCP0); assay: SelectScreen, TR FRET; conditions: compound 5.0 µM
CSNK1G1 (human), sequence (Q9HCP0 whole entry, looked up): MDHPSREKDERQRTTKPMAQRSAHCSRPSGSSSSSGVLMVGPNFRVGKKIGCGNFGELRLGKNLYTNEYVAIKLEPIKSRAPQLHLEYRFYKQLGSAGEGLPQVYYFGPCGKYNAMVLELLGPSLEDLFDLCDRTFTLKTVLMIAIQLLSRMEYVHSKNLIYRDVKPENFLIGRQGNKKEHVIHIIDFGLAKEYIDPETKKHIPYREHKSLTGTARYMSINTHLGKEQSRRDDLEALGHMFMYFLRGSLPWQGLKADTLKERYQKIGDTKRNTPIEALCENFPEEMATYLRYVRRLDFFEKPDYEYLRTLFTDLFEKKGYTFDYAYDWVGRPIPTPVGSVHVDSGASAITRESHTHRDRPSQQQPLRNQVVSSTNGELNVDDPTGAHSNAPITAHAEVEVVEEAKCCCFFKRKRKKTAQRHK

[40] = biological target: EPHA4 (human) (UniProt P54764); assay: SelectScreen, TR FRET; conditions: compound 5.0 µM

FLT1 (human), sequence (P17948 whole entry, looked up): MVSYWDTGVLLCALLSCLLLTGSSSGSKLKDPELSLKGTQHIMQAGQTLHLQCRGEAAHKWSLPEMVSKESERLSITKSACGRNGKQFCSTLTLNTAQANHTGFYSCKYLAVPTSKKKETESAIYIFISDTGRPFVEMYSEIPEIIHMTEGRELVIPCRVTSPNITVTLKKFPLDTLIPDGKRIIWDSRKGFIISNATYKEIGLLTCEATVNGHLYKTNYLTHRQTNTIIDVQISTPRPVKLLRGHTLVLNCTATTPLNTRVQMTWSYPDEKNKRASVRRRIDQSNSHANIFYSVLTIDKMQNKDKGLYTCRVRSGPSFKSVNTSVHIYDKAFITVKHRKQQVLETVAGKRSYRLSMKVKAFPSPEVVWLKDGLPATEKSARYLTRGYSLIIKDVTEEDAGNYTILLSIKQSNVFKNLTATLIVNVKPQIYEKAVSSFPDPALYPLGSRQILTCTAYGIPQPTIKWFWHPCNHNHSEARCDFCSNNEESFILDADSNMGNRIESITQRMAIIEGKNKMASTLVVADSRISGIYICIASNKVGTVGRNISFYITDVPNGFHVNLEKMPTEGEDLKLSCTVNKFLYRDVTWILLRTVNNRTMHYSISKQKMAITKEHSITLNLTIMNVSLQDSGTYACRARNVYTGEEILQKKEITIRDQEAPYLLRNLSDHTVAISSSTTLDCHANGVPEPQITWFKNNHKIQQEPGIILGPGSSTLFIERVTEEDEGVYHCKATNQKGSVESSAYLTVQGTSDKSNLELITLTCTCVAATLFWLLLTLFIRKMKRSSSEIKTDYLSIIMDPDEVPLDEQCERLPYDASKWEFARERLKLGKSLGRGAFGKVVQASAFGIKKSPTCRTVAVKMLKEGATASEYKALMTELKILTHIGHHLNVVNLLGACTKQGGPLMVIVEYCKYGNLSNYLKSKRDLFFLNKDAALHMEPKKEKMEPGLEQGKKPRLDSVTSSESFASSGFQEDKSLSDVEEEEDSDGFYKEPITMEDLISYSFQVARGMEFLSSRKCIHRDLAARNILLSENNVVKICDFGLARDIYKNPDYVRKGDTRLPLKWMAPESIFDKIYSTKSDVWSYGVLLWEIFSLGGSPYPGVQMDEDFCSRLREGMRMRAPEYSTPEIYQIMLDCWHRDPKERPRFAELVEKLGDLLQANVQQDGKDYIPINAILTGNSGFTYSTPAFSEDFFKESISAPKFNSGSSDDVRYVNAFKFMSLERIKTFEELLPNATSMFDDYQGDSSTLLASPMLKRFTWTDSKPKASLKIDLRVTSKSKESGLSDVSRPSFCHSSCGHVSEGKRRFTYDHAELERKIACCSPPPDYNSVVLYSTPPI

inhibition of binding [1]: 0%
inhibition of binding [2]: 0%
inhibition of binding [3]: 0%
inhibition of binding [4]: 0%
inhibition of binding [5]: 0%
inhibition of binding [6]: 0%
inhibition of binding [7]: 12%
inhibition of binding [8]: 17%
inhibition of binding [9]: 0%
inhibition of binding [10]: 0%
inhibition of binding [11]: 0%
inhibition of binding [12]: 0%
inhibition of binding [13]: 1%
inhibition of binding [14]: 17%
inhibition of binding [15]: 2%
inhibition of binding [16]: 0%
inhibition of binding [17]: 0%
inhibition of binding [18]: 0%
inhibition of binding [19]: 13%
inhibition of binding [20]: 0%
inhibition of binding [21]: 7%
inhibition of binding [22]: 0%
inhibition of binding [23]: 5%
inhibition of binding [24]: 20%
inhibition [25]: 2%
inhibition [26]: 0%
inhibition [27]: 0%
inhibition [28]: 3%
inhibition [29]: 6%
inhibition [30]: 3%
inhibition [31]: 9%
inhibition [32]: 5%
inhibition [33]: 3%
inhibition [34]: 0%
inhibition [35]: 0%
inhibition [36]: 11%
inhibition [37]: 10%
inhibition [38]: 6%
inhibition [39]: 1%
inhibition [40]: 9%
SMILES: Nc1cc(C(F)(F)F)c(-c2cc(N3CCOCC3)nc(N3CCOCC3)n2)cn1
